Data reported in ChEMBL document CHEMBL5365529, “Construction and Evaluation of Novel Dual-function Antifungal Inhibitors and Covalent Organic Framework Carriers Based on the Infection Microenvironment” (J Med Chem, 2023).
≈ marks a conversion by molar mass, not a printed value. Calls of active or inactive are those of the source. No cut-off for these calls is given here.

How the values were obtained:
Candida albicans [1] = experiment: Induction of immunity in BALB/c mouse infected with Candida albicans 901 assessed as decrease in PD-L1 level at 0.5 ug/g administered 6 times measured after 4 days in presence of Biphenyl isopropyl ester by Western blot analysis; format: functional, organism-based; conditions: dose 0.5 µg/g, time 4.0 day
Candida albicans [2] = experiment: Antifungal activity against Candida albicans SC5314 assessed as fungal growth inhibition incubated for 72 hrs by CLSI based susceptibility test; format: functional
[3] = Toxicity in BALB/c mouse infected with Candida albicans 901 assessed as pathological change in lung at 0.5 ug/g administered 6 times measured after 4 days in presence of Biphenyl isopropyl ester by H and E staining based analysis; format: tissue-based; conditions: in vivo, 96 h, dose 0.5 µg/g, time 4 day
[4] = target: T1, Lanosterol 14-alpha demethylase (Candida albicans (strain SC5314 / ATCC MYA-2876) (Yeast), UniProt P10613); experiment: Inhibition of CYP51 in Candida albicans SC5314 using lanosterol as substrate incubated for 60 mins by HPLC analysis
[5] = Toxicity in BALB/c mouse infected with Candida albicans 901 assessed as pathological change in kidney at 0.5 ug/g administered 6 times measured after 4 days in presence of Biphenyl isopropyl ester by H and E staining based analysis; format: tissue-based; conditions: in vivo, 96 h, dose 0.5 µg/g, time 4 day
Candida albicans [6] = experiment: Antifungal activity against Candida albicans 901 infected in BALB/c mouse assessed as decrease in collagen fiber content at 0.5 ug/g administered 6 times measured after 4 days in presence of Biphenyl isopropyl ester by GMS staining based analysis; format: functional, organism-based; conditions: dose 0.5 µg/g, time 4.0 day
Candida albicans [7] = experiment: Antifungal activity against FLC-resistant Candida albicans 901 assessed as fungal growth inhibition incubated for 72 hrs by CLSI based susceptibility test; format: functional
Mus musculus [8] = experiment: Antiinflammatory activity in BALB/c mouse infected with Candida albicans 901 assessed as decrease in NLRP3 level at 0.5 ug/g administered 6 times measured after 4 days by Western blot analysis; format: functional, organism-based; conditions: dose 0.5 µg/g, time 4.0 day
Candida albicans [9] = experiment: Induction of apoptosis in Candida albicans SC5314 assessed as apoptotic cells incubated for 48 hrs by annexin V-FITC/PI staining based flow cytometry (reference value: 2.12 %); format: functional
[10] = target: T1, Lanosterol 14-alpha demethylase; experiment: Inhibition of CYP51 in Candida albicans SC5314 assessed as unknown sterol level at 4 ug/ml incubated for 16 hrs by GC-MS analysis (reference value: 5.35 %); parameters: scale not given: the % may be the effect or the level left; conditions: at 4 µg/mL
[11] = target: T1, Lanosterol 14-alpha demethylase; experiment: Inhibition of CYP51 in Candida albicans SC5314 assessed as lanosterol level at 4 ug/ml incubated for 16 hrs by GC-MS analysis relative to control; parameters: scale not given: the % may be the effect or the level left; conditions: at 4 µg/mL
Aspergillus fumigatus = experiment: Antifungal activity against Aspergillus fumigatus KM8001 assessed as fungal growth inhibition incubated for 72 hrs by CLSI based susceptibility test; format: functional
Candida tropicalis = experiment: Antifungal activity against Candida tropicalis ATCC 1369 assessed as fungal growth inhibition incubated for 72 hrs by CLSI based susceptibility test; format: functional
Mus musculus [12] = experiment: Antiinflammatory activity in BALB/c mouse infected with Candida albicans 901 assessed as decrease in INF-gamma level at 0.5 ug/g administered 6 times measured after 4 days by Western blot analysis; format: functional, organism-based; conditions: dose 0.5 µg/g, time 4.0 day
Candida albicans [13] = experiment: Antifungal activity against FLC-resistant Candida albicans 17# assessed as fungal growth inhibition incubated for 72 hrs by CLSI based susceptibility test; format: functional
[14] = Toxicity in BALB/c mouse infected with Candida albicans 901 assessed as pathological change in heart at 0.5 ug/g administered 6 times measured after 4 days in presence of Biphenyl isopropyl ester by H and E staining based analysis; format: tissue-based; conditions: in vivo, 96 h, dose 0.5 µg/g, time 4 day
Candida albicans [15] = experiment: Antifungal activity against Candida albicans 901 infected in BALB/c mouse assessed as inhibition of fungal proliferation at 0.5 ug/g administered 6 times measured after 4 days in presence of Biphenyl isopropyl ester by Masson staining based analysis; format: functional, organism-based; conditions: dose 0.5 µg/g, time 4.0 day
Candida albicans [16] = experiment: Induction of immunity in BALB/c mouse infected with Candida albicans 901 assessed as decrease in PD-L1 level at 0.5 ug/g administered 6 times measured after 4 days by Western blot analysis; format: functional, organism-based; conditions: dose 0.5 µg/g, time 4.0 day
Candida albicans [17] = experiment: Antifungal activity against Candida albicans 901 infected in BALB/c mouse assessed as repair of tissue damage at 0.5 ug/g administered 6 times measured after 4 days in presence of Biphenyl isopropyl ester by Masson staining based analysis; format: functional, organism-based; conditions: dose 0.5 µg/g, time 4.0 day
Nakaseomyces glabratus = experiment: Antifungal activity against Candida glabrata assessed as fungal growth inhibition incubated for 72 hrs by CLSI based susceptibility test; format: functional
[18] = Toxicity in BALB/c mouse infected with Candida albicans 901 assessed as pathological change in liver at 0.5 ug/g administered 6 times measured after 4 days in presence of Biphenyl isopropyl ester by H and E staining based analysis; format: tissue-based; conditions: in vivo, 96 h, dose 0.5 µg/g, time 4 day
Candida albicans [19] = experiment: Antifungal activity against Candida albicans 901 infected in BALB/c mouse assessed as repair of tissue damage at 0.5 ug/g administered 6 times measured after 4 days in presence of Biphenyl isopropyl ester by GMS staining based analysis; format: functional, organism-based; conditions: dose 0.5 µg/g, time 4.0 day
Candida albicans [20] = experiment: Antifungal activity against FLC-resistant Candida albicans 904 assessed as fungal growth inhibition incubated for 72 hrs by CLSI based susceptibility test; format: functional
Candida albicans [21] = experiment: Antifungal activity against FLC-resistant Candida albicans 632 assessed as fungal growth inhibition incubated for 72 hrs by CLSI based susceptibility test; format: functional
Candida albicans [22] = experiment: Antifungal activity against Candida albicans 901 infected in BALB/c mouse assessed as reduction in fungal growth at 0.5 ug/g administered 6 times measured after 4 days by H and E staining based analysis; format: functional, organism-based; conditions: dose 0.5 µg/g, time 4.0 day
Candida albicans [23] = experiment: Antifungal activity against Candida albicans 901 infected in BALB/c mouse assessed as inhibition of fungal proliferation at 0.5 ug/g administered 6 times measured after 4 days in presence of Biphenyl isopropyl ester by GMS staining based analysis; format: functional, organism-based; conditions: dose 0.5 µg/g, time 4.0 day
Candida albicans [24] = experiment: Induction of mitochondrial membrane depolarization in Candida albicans SC5314 by JC-1 staining based flow cytometry (reference value: 12.51 %); format: functional
Candida albicans [25] = experiment: Induction of immunity in BALB/c mouse infected with Candida albicans 901 assessed as decrease in PD-L1 level at 0.5 ug/g administered 6 times measured after 4 days in presence of Biphenyl isopropyl ester by IHC analysis; format: functional, organism-based; conditions: dose 0.5 µg/g, time 4.0 day
[26] = Toxicity in BALB/c mouse infected with Candida albicans 901 assessed as pathological change in spleen at 0.5 ug/g administered 6 times measured after 4 days in presence of Biphenyl isopropyl ester by H and E staining based analysis; format: tissue-based; conditions: in vivo, 96 h, dose 0.5 µg/g, time 4 day
Candida albicans [27] = experiment: Induction of immunity in BALB/c mouse infected with Candida albicans 901 assessed as decrease in PD-L1 level at 0.5 ug/g administered 6 times measured after 4 days by IHC analysis; format: functional, organism-based; conditions: dose 0.5 µg/g, time 4.0 day
Candida albicans [28] = experiment: Antifungal activity against FLC-resistant Candida albicans CaR assessed as fungal growth inhibition incubated for 72 hrs by CLSI based susceptibility test; format: functional
Candida albicans [29] = experiment: Induction of apoptosis in Candida albicans SC5314 assessed as necrotic cells incubated for 48 hrs by annexin V-FITC/PI staining based flow cytometry (reference value: 2.12 %); format: functional
Cryptococcus neoformans = experiment: Antifungal activity against Cryptococcus neoformans ZKCC 2209 assessed as fungal growth inhibition incubated for 72 hrs by CLSI based susceptibility test; format: functional
Mus musculus [30] = experiment: Antiinflammatory activity in BALB/c mouse infected with Candida albicans 901 assessed as decrease in kappaB-p65 level at 0.5 ug/g administered 6 times measured after 4 days by Western blot analysis; format: functional, organism-based; conditions: dose 0.5 µg/g, time 4.0 day
Candida albicans [31] = experiment: Antifungal activity against Candida albicans 901 infected in BALB/c mouse assessed as decrease in collagen fiber content at 0.5 ug/g administered 6 times measured after 4 days in presence of Biphenyl isopropyl ester by Masson staining based analysis; format: functional, organism-based; conditions: dose 0.5 µg/g, time 4.0 day

T1 sequence (P10613 whole entry): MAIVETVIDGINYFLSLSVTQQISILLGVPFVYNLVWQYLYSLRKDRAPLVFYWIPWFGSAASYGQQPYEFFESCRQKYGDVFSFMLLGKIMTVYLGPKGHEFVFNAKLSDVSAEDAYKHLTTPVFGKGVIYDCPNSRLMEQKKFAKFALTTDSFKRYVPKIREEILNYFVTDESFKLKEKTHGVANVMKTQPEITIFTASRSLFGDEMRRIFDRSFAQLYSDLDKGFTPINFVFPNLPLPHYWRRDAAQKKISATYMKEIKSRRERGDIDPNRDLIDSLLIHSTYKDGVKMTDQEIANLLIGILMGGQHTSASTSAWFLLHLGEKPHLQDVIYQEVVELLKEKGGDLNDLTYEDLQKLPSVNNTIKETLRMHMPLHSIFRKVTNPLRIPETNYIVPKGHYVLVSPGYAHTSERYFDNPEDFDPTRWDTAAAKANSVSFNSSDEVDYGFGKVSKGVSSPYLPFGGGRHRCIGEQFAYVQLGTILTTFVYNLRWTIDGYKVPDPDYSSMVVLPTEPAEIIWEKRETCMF

CC(=O)N1CCN(c2ccc(OCC3COC(Cn4ccnc4)(c4ccc(Cl)cc4Cl)O3)cc2)CC1 (stereo not given) [KETOCONAZOLE]
Activity (Candida albicans [1]): Active
MIC50 (Candida albicans [2]): 0.25 µg/mL (≈ 0.47 µM)
Activity [3]: Non-Toxic
IC50 [4]: 130 nM
Activity [5]: Non-Toxic
Activity (Candida albicans [6]): Active
MIC50 (Candida albicans [7]): 4 µg/mL (≈ 7.53 µM)
Activity (Mus musculus [8]): inactive
Activity (Candida albicans [9]): 25.91%
Activity [10]: 5.07%
Activity [11]: 13.06%
MIC50 (Aspergillus fumigatus): 4 µg/mL (≈ 7.53 µM)
MIC50 (Candida tropicalis): 0.5 µg/mL (≈ 0.941 µM)
Activity (Mus musculus [12]): inactive
MIC50 (Candida albicans [13]): 4 µg/mL (≈ 7.53 µM)
Activity [14]: Non-Toxic
inhibition (Candida albicans [15]): Active
Activity (Candida albicans [16]): Active
Activity (Candida albicans [17]): Active
MIC50 (Nakaseomyces glabratus): 1 µg/mL (≈ 1.88 µM)
Activity [18]: Non-Toxic
Activity (Candida albicans [19]): Active
MIC50 (Candida albicans [20]): 4 µg/mL (≈ 7.53 µM)
MIC50 (Candida albicans [21]): ≥ 8 µg/mL
Activity (Candida albicans [22]): Active
inhibition (Candida albicans [23]): Active
Activity (Candida albicans [24]): 34.74%
Activity (Candida albicans [25]): Active
Activity [26]: Non-Toxic
Activity (Candida albicans [27]): Active
MIC50 (Candida albicans [28]): ≥ 8 µg/mL
Activity (Candida albicans [29]): 25.91%
MIC50 (Cryptococcus neoformans): 4 µg/mL (≈ 7.53 µM)
Activity (Mus musculus [30]): inactive
Activity (Candida albicans [31]): Active
